Laboratory results from ChEMBL document CHEMBL1201862, “PubChem BioAssay data set” (2004).
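Each compound was tested at five concentrations against cells in 96-well plates for 48 hours. Here, GI50 denotes the concentration required for 50% inhibition of growth.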 Calls of active or inactive are those of the source. Rule as the data show it: active = GI50 up to about 1.1 µM and inactive = higher.

Assays:
Test in all cases: DTP human tumour cell line panel, 48 h
[1] = test system: CAKI-1
[2] = test system: A498
[3] = test system: OVCAR-4
[4] = test system: HOP-62
[5] = test system: OVCAR-8
[6] = test system: NCI-H23
[7] = test system: KM12
[8] = test system: DU-145
[9] = test system: SK-MEL-28
[10] = test system: SW-620
[11] = test system: K562
[12] = test system: Malme-3M
[13] = test system: ACHN
[14] = test system: IGROV-1
[15] = test system: SK-MEL-2
[16] = test system: A549
[17] = test system: U-251
[18] = test system: RXF 393
[19] = test system: SF-268
[20] = test system: MDA-MB-231
[21] = test system: SK-OV-3
[22] = test system: OVCAR-3
[23] = test system: NCI-H522
[24] = test system: Hs-578T
[25] = test system: NCI-H460
[26] = test system: UACC-62
[27] = test system: MOLT-4
[28] = test system: SK-MEL-5
[29] = test system: COLO 205
[30] = test system: MDA-N
[31] = test system: CCRF-CEM
[32] = test system: PC-3
[33] = test system: MCF7
[34] = test system: SF-539
[35] = test system: HCT-15
[36] = test system: UACC-257
[37] = test system: SNB-19
[38] = test system: UO-31
[39] = test system: SN12C
[40] = test system: HL-60
[41] = test system: RPMI-8226
[42] = test system: OVCAR-5
[43] = test system: LOX IMVI
[44] = test system: HOP-92
[45] = test system: M14
[46] = test system: EKVX
[47] = test system: SF-295
[48] = test system: MDA-MB-435
[49] = test system: SNB-75
[50] = test system: SR
[51] = test system: TK-10
[52] = test system: HT-29
[53] = test system: T47D
[54] = test system: NCI/ADR-RES
[55] = test system: 786-0
[56] = test system: HCT-116
[57] = test system: BT-549
[58] = test system: NCI-H226
[59] = test system: HCC 2998

In the case of `CC1(CC(=O)O)OC2CCCCCC2O1.NCc1ccccc1` (stereo not drawn), the GI50 [1] was > 100 µM (inactive), the GI50 [2] was > 100 µM (inactive) and the GI50 [3] was > 100 µM (inactive). The GI50 [4] was > 100 µM (inactive), the GI50 [5] was > 100 µM (inactive) and the GI50 [6] was > 100 µM (inactive). The GI50 [7] was 64.6 µM (inactive), the GI50 [8] was > 100 µM (inactive) and the GI50 [9] was > 100 µM (inactive). The GI50 [10] was > 100 µM (inactive), the GI50 [11] was 57.8 µM (inactive) and the GI50 [12] was > 100 µM (inactive). For the same compound, the GI50 [13] was > 100 µM (inactive), the GI50 [14] was > 100 µM (inactive) and the GI50 [15] was > 100 µM (inactive). For the same compound, the GI50 [16] was > 100 µM (inactive), the GI50 [17] was 91.4 µM (inactive) and the GI50 [18] was > 100 µM (inactive). The GI50 [19] was > 100 µM (inactive), the GI50 [20] was > 100 µM (inactive) and the GI50 [21] was > 100 µM (inactive). The GI50 [22] was > 100 µM (inactive), the GI50 [23] was > 100 µM (inactive) and the GI50 [24] was > 100 µM (inactive). The GI50 [25] was > 100 µM (inactive), the GI50 [26] was > 100 µM (inactive) and the GI50 [27] was > 100 µM (inactive). For the same compound, the GI50 [28] was 88.1 µM (inactive), the GI50 [29] was > 100 µM (inactive) and the GI50 [30] was 73.8 µM (inactive). The GI50 [31] was 34.2 µM (inactive), the GI50 [32] was > 100 µM (inactive) and the GI50 [33] was > 100 µM (inactive). The GI50 [34] was > 100 µM (inactive), the GI50 [35] was > 100 µM and the GI50 [36] was 53.5 µM (inactive). For the same compound, the GI50 [37] was > 100 µM (inactive), the GI50 [38] was > 100 µM (inactive) and the GI50 [39] was > 100 µM (inactive). The GI50 [40] was > 100 µM (inactive), the GI50 [41] was 31.9 µM (inactive) and the GI50 [42] was > 100 µM (inactive). For the same compound, the GI50 [43] was > 100 µM (inactive), the GI50 [44] was 51.4 µM (inactive) and the GI50 [45] was > 100 µM (inactive). The GI50 [46] was 20.2 µM (inactive), the GI50 [47] was > 100 µM (inactive) and the GI50 [48] was > 100 µM (inactive). The GI50 [49] was 99.3 µM (inactive), the GI50 [50] was > 100 µM (inactive) and the GI50 [51] was > 100 µM (inactive). For the same compound, the GI50 [52] was 64.1 µM (inactive), the GI50 [53] was 92.9 µM (inactive) and the GI50 [54] was > 100 µM (inactive). For the same compound, the GI50 [55] was > 100 µM (inactive), the GI50 [56] was 74.8 µM (inactive) and the GI50 [57] was > 100 µM (inactive). For the same compound, the GI50 [58] was > 100 µM (inactive).

With `Cc1[nH]c2ncn(/N=C/c3ccccc3)c(=N)c2c1Cc1ccccc1` the GI50 [1] was > 100 µM (inactive), the GI50 [2] was 60.8 µM (inactive) and the GI50 [3] was > 100 µM (inactive). For the same compound, the GI50 [4] was > 100 µM (inactive), the GI50 [5] was > 100 µM (inactive) and the GI50 [6] was > 100 µM (inactive). For the same compound, the GI50 [7] was 75.7 µM (inactive), the GI50 [8] was > 100 µM (inactive) and the GI50 [9] was > 100 µM (inactive). For the same compound, the GI50 [10] was > 100 µM (inactive), the GI50 [11] was > 100 µM (inactive) and the GI50 [13] was > 100 µM (inactive). For the same compound, the GI50 [14] was > 100 µM (inactive), the GI50 [15] was 87.1 µM (inactive) and the GI50 [16] was > 100 µM (inactive). The GI50 [17] was 98.6 µM (inactive), the GI50 [18] was > 100 µM (inactive) and the GI50 [19] was > 100 µM (inactive). The GI50 [20] was 58.1 µM (inactive), the GI50 [21] was > 100 µM (inactive) and the GI50 [22] was > 100 µM (inactive). The GI50 [24] was > 100 µM (inactive), the GI50 [25] was > 100 µM (inactive) and the GI50 [26] was 58.9 µM (inactive). The GI50 [27] was 53 µM (inactive), the GI50 [29] was > 100 µM (inactive) and the GI50 [30] was 55.1 µM (inactive). For the same compound, the GI50 [31] was > 100 µM (inactive), the GI50 [32] was 45.7 µM (inactive) and the GI50 [59] was 83.9 µM (inactive). For the same compound, the GI50 [33] was 79.6 µM (inactive), the GI50 [34] was 38.5 µM (inactive) and the GI50 [35] was > 100 µM. The GI50 [36] was 75.3 µM (inactive), the GI50 [37] was > 100 µM (inactive) and the GI50 [38] was > 100 µM (inactive). For the same compound, the GI50 [39] was > 100 µM (inactive), the GI50 [40] was > 100 µM (inactive) and the GI50 [41] was > 100 µM (inactive). The GI50 [42] was > 100 µM (inactive), the GI50 [43] was 89.9 µM (inactive) and the GI50 [44] was 42.4 µM (inactive). For the same compound, the GI50 [45] was > 100 µM (inactive), the GI50 [46] was 69.8 µM (inactive) and the GI50 [47] was > 100 µM (inactive). For the same compound, the GI50 [48] was 84.1 µM (inactive), the GI50 [49] was > 100 µM (inactive) and the GI50 [51] was > 100 µM (inactive). The GI50 [52] was > 100 µM (inactive), the GI50 [53] was > 100 µM (inactive) and the GI50 [54] was > 100 µM (inactive). The GI50 [55] was > 100 µM (inactive), the GI50 [56] was 87.3 µM (inactive) and the GI50 [57] was > 100 µM (inactive). For the same compound, the GI50 [58] was 95.5 µM (inactive).
